In patent US20240279613A1, “METHOD OF PRODUCING ENTEROENDOCRINE CELL, ENTEROENDOCRINE CELL DERIVED FROM PLURIPOTENT STEM CELL, CULTURE MEDIUM OR CULTURE MEDIUM KIT, AND USE THEREOF” (FUJIFILM Corporation, priority 2021, published 2024):

Key:
[1] = tested on: Human iPS cell-derived intestinal epithelial cells F-hiSIEC; test: Gene expression of EEC markers in F-hiSIEC cells cultured with LY411575 or DAPT added (culture media of Table 2, real-time PCR, Day 9); assay type: cell-based
Text: (§1) Human iPS cell-derived intestinal epithelial cells (including intestinal stem cells, LGR5+ cells) F-hiSIEC™ (FUJIFILM Corporation) were thawed on the day 0 and seeded at 1.0×10^6 cells/well on a cell culture insert coated with Matrigel™ (Corning Incorporated) by using F-hiSIEC™ Seeding Medium (FUJIFILM Corporation), and then from the next day, the culture medium was exchanged every other day with each culture medium (culture medium compositions 7 to 13) in Table 2. Coating, seeding, and culture medium exchange were carried out according to the F-hiSIEC instruction manual to obtain a cell sheet. The total RNA was extracted from the cells on the Day 9. For RNA extraction, the cells were lysed with Qiazol (QIAGEN), 20% of chloroform was added thereto, mixed, and centrifuged at 12,000 g for 10 minutes to obtain a solution, and the supernatant of the solution was recovered. Total RNA was extracted from the supernatant according to the manual using an RNeasy mini kit (QIAGEN). cDNA was synthesized from the total RNA using a High Capacity RNA-to-cDNA kit (Applied Biosystems) according to the manual. The obtained cDNA was subjected to the measurement of the gene expression level by using a ViiA7 real-time PCR system (Applied Biosystems) with a Taqman Gene Expression Assay system and a Taqman Gene Expression Master Mix (Applied Biosystems). The Taqman Assay ID used were as follows: 18s: 03003631_g1. CHGA: Hs00900370_m1. PYY: Hs00373890_g1, and NEUROG3: Hs01875204_s1.
(§2) Gene expression levels for comparison are indicated in terms of relative value in a case where the expression in the control group cultured in the F-hiSIEC Culture Medium is corrected with the expression level of the internal standard gene 18S according to the […] and then is set to 1.

[2] = tested on: Human iPS cell-derived intestinal epithelial cells F-hiSIEC; test: Gene expression of EEC markers in F-hiSIEC cells cultured in culture media of Table 1 (real-time PCR, Day 9); assay type: cell-based; conditions: LY411575 (composition 4, 1 μmol/L, no EGF) compared with DAPT (composition 6, 10 μmol/L)
Text: as §1, with “compositions 1” for “compositions 7”, “to 6)” for “to 13)”, “Table 1.” for “Table 2.”, “18s: 03003631_g1,” for “18s: 03003631_g1.”, “CHGA: Hs00900370_m1, TPH1: Hs00188220_m1,” for “CHGA: Hs00900370_m1.”, “and REG4: Hs00230746_m1.” for “and NEUROG3: Hs01875204_s1.”
as §2

[3] = LY411575 2 μmol/L addition group (culture medium composition 11), among compositions 7 to 13
[4] = LY411575 addition groups (0.5 to 2.0 μmol/L) compared with DAPT addition groups (5 to 10 μmol/L), no EGF, FIG. 2

C[C@H](NC(=O)[C@@H](O)c1cc(F)cc(F)c1)C(=O)N[C@@H]1C(=O)N(C)c2ccccc2-c2ccccc21 [LY411575]
expression level of CHGA [1, 3]: highest
expression level of NEUROG3 [1, 3]: highest
expression level of PYY [1, 3]: highest
expression of CHGA [1, 4]: high
expression of PYY [1, 4]: remarkably high
expression of CHGA [2]: remarkably high
expression of PYY [2]: remarkably high
expression of Reg4 [2]: remarkably high
expression of TPH1 [2]: remarkably high
